According to patent publication EP1388586A2, “Identification of broadly reactive DR restricted epitopes” (priority 1998, dated 1999):
Read-outs that look alike come from different tables or passages of the source. Square brackets hold non-standard residues; d marks the D form. Ends that are not written are not given here. Peptide text beside a SMILES is read from it.

Key:
DRB1*0101 (DR1) = biological target: T1, DRB1*0101 (DR1) (Homo sapiens, UniProt P01903+P01911, A100R/D57E/F55L/F60I/F76Y/I96L/L162R/M171V/P40L/Q125E/R42F/V115G/Y59C); assay: Class II peptide-binding assay, DR1;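 also: competition assay: unlabeled test peptides inhibit binding of a radiolabeled probe peptide to purified DR, with half-maximal inhibition taken as an approximate dissociation constant Kd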
T1 construct: used as sources of human HLA class II molecules; endogenous in cells; host or cells: LG2 (EBV-transformed homozygous B cell line)

DRB10404 (DR4w14) = biological target: T2, DRB10404 (DR4w14) (Homo sapiens, UniProt P01903+P01911, A100R/A169T/F76Y/I96L/K127E/L162R/M171V/N62H/P40V/Q125Y/R42H/S133A/S149N/S66Y/V209L/W38E); assay: Class II peptide-binding assay, DR4w14;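 also: unlabeled peptides compete with a radiolabeled probe for binding to affinity-purified HLA-DR, neutral pH, class II amount titrated to bind a small fraction of label, IC50 approximates Kd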
T2 construct: used as sources of human HLA class II molecules; endogenous in cells; host or cells: BIN40 (EBV-transformed homozygous B cell line)

DRB1*0401 (DR4w4) = biological target: T3, DRB1*0401 (DR4w4) (Homo sapiens, UniProt P01903+P01911, A100K/A169T/F76Y/I96L/K127E/L162R/M171V/N62H/P40V/Q125Y/R42H/S133A/S149N/S66Y/V115G/V209L/W38E); assay: Class II peptide-binding assay, DR4w4;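 also: unlabeled test peptides compete with a radiolabeled probe peptide for binding to affinity-purified HLA-DR, with DR amount titrated to capture a small fraction of label, IC50 approximating Kd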
T3 construct: used as sources of human HLA class II molecules; endogenous in cells; host or cells: PREISS (EBV-transformed homozygous B cell line)

DRB1*0701 (DR7) = DRB1*0701 (DR7) (Homo sapiens, UniProt P01903+P01911, A100R/A102G/A103Q/D57E/D86V/E43K/F76Y/K127E/L162R/M171V/P40G/Q125H/Q99D/R33Q/R42Y/R54Q/S133A/S66F/T210M/V115G/Y107V/Y59L/Y89S); assay: Class II peptide-binding assay, DR7;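 also: unlabeled peptides compete with an iodinated probe peptide for binding to affinity-purified HLA-DR at neutral pH, DR amount titered to bind a small tracer fraction, IC50 approximating Kd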
DRB1*1101 (DR5w11) = biological target: T4, DRB1*1101 (DR5w11) (Homo sapiens, UniProt P01903+P01911, A100R/A169T/A87E/I96F/K41T/L162R/M171V/P40S/Q125H/Q178H/Q39Y/Q99D/R42S/S66Y/T262R/V115G/W38E); assay: Class II peptide-binding assay, DR5w11;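 also: competition by unlabeled test peptide against iodinated probe peptide binding to affinity-purified HLA-DR, class II amount titrated beforehand, half-maximal inhibitory concentration read as approximate Kd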
T4 construct: used as sources of human HLA class II molecules; endogenous in cells; host or cells: SWEIG (EBV-transformed homozygous B cell line)
Method: (§1) Class II peptide-binding assays. […] These assays were chosen as to be representative of the most common DR alleles.
(§2) Radiolabeled peptides were iodinated using the chloramine-T method. […] In appropriate stoichiometric conditions, the IC50 of an unlabeled test peptide to the purified DR is a reasonable approximation of the affinity of interaction (Kd). Peptides were tested in two to four completely independent experiments. […] Final detergent concentration in the incubation mixture was 0.05% Nonidet P-40. Assays were performed at pH 7.0 with the exception of DR3, which was performed at pH 4.5, and DRw53, which was performed at pH 5.0.
(§3) All subsequent inhibition and direct binding assays were the performed using these class II concentrations.

DRB5*0101 (DR2w2a) = biological target: T5, DRB5*0101 (DR2w2a) (Homo sapiens, UniProt P01903+Q30154); assay: Class II peptide-binding assay, DR2w2a (DR2w2B2);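 also: competitive binding assay: unlabeled peptide inhibiting binding of a radiolabeled probe peptide to purified DR molecules at pH 7.0, IC50 approximating Kd, lower means stronger binding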
T5 construct: used as sources of human HLA class II molecules; endogenous in cells; host or cells: GM3107 (EBV-transformed homozygous B cell line)
Method: as §1, §2, §3

[1] = read-out: DR4w14 nM, Table VIII, In IC50 Format
[2] = read-out: DR4w4 nM, Table VIII, In IC50 Format
[3] = read-out: DR7 nM, Table VIII, In IC50 Format
[4] = read-out: DR5w11 nM, Table VIII, In IC50 Format
[5] = read-out: DR2w2B2 nM, Table VIII, In IC50 Format
[6] = read-out: DR1 nM (In IC50 Format), purified HLA DR1
[7] = read-out: DR4w14 nM (In IC50 Format), purified HLA DR4w14
[8] = read-out: DR4w4 nM (In IC50 Format), purified HLA DR4w4
[9] = read-out: DR7 nM (In IC50 Format), purified HLA DR7
[10] = read-out: DR5w11 nM (In IC50 Format), purified HLA DR5w11
[11] = read-out: DR2w2B2 nM (In IC50 Format), purified HLA DR2w2β2

T4 sequence (P01903 26-254, other chains not shown): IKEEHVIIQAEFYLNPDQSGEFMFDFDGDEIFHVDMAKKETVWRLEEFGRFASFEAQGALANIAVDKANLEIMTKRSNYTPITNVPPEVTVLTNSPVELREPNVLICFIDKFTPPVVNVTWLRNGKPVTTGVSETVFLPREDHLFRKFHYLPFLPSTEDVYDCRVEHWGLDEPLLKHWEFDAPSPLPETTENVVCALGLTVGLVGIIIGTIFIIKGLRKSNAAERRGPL

| Compound | IC50 (DRB1*0101 (DR1); [6]) [nM] | IC50 (DRB10404 (DR4w14); [7]) [nM] | IC50 (DRB1*0401 (DR4w4); [8]) [nM] | IC50 (DRB1*0701 (DR7); [9]) [nM] | IC50 (DRB1*1101 (DR5w11); [10]) [nM] | IC50 (DRB5*0101 (DR2w2a); [11]) [nM] | further results |
| --- | --- | --- | --- | --- | --- | --- | --- |
| C[C@H](NC(=O)[C@H](N)Cc1ccc(O)cc1)C(=O)N[C@@H](C)C(=O)N[C@@H](Cc1ccccc1)C(=O)N[C@@H](C)C(=O)N[C@@H](C)C(=O)N[C@@H](C)C(=O)N[C@@H](C)C(=O)N[C@H](C(=O)N[C@@H](CCCCN)C(=O)N[C@@H](C)C(=O)N[C@@H](C)C(=O)N[C@@H](C)C(=O)N[C@H](C)C(N)=O)[C@@H](C)O [Peptide 828.10] (H-[dY]AAFAAAATKAAA[dA]-NH2) |  |  |  |  |  |  | IC50 (DRB1*0101 (DR1); read-out: DR1 nM, Table VIII, In IC50 Format): 1.9 nM; IC50 (DRB10404 (DR4w14); [1]): 111 nM; IC50 (DRB1*0401 (DR4w4); [2]): 3.4 nM; IC50 (DRB1*0701 (DR7); [3]): 1250 nM; IC50 (DRB1*1101 (DR5w11); [4]): 22.2 nM; IC50 (DRB5*0101 (DR2w2a); [5]): 19.8 nM |
| YARFQSQTVLKAKT-NH2 [Peptide 717.32] | 7.6 | 10.4 | 5.7 | 151 | 14.3 | 400 |  |
| YARFASQTTLKAKT-NH2 [Peptide 717.56] | 3.1 | 12.8 | 5.2 | 6250 | 21.1 | 118 |  |
| YAKFQSQTTLKAKT-NH2 [Peptide 717.40] | 8.8 | 14.3 | 4.9 | 3570 | 8.7 | 167 |  |
| YARFQSATTLKAKT-NH2 [Peptide 717.54] | 4.6 | 7.2 | 4.1 | 676 | 9.5 | 60.6 |  |
| INSWVESQTNGIIRNVLQPS [Peptide 732.01] | 385 | 269 | 166 | 269 | 6670 | 1330 |  |
| KYLATASTMDHARHGFLP [Peptide 765.02] | 50000 | 86.5 | 100 | 157 | 5000 | 10000 |  |
| YARAQSQTTLKAKT-NH2 [Peptide 717.29] | 556 | 41.7 | 30 | 3570 | 20000 | 1820 |  |
| YARFQSQTTLKAKE-NH2 [Peptide 717.28] | 4.5 | 12.8 | 26.5 | 5000 | 16.7 | 95.2 |  |
| YARFQSQTTAKAKT-NH2 [Peptide 717.51] | 3.3 | 13.2 | 6.1 | 6250 | 38.8 | 66.7 |  |
| YARFQSQTTLKAKT [Peptide 717.67] | 3.6 | 11.1 | 6 | 1390 | 7.4 | 167 |  |
| Ac-AFAAAATLKA-NH2 [Peptide 770.02] | 35.7 | 102 | 21.4 | 325 | 104 | 132 |  |
| LMQYIKANSKFIGITE [Peptide 812.03] |  |  |  |  |  |  | IC50 (DRB1*0101 (DR1); purified HLA DR1, read-out: DR1 nM (In IC50 Format)): 13.2 nM; IC50 (DRB10404 (DR4w14); purified HLA DR4w14, read-out: DR4w14 nM (In IC50 Format)): 65.8 nM; IC50 (DRB1*0401 (DR4w4); purified HLA DR4w4, read-out: DR4w4 nM (In IC50 Format)): 150 nM; IC50 (DRB1*0701 (DR7); purified HLA DR7, read-out: DR7 nM (In IC50 Format)): 11.9 nM; IC50 (DRB1*1101 (DR5w11); purified HLA DR5w11, read-out: DR5w11 nM (In IC50 Format)): 13.9 nM; IC50 (DRB5*0101 (DR2w2a); purified HLA DR2w2β2, read-out: DR2w2B2 nM (In IC50 Format)): 4.9 nM |
| YARFQSQETLKAKT-NH2 [Peptide 717.17] | 6 | 25 | 5.2 | 1920 | 18.2 | 870 |  |
| AAFAAAAAQRLFA-NH2 [Peptide 761.01] | 2.3 | 3330 | 30 | 7.6 | 556 | 1.2 |  |
| YARFQSQTTIKAKT-NH2 [Peptide 717.19] | 5.7 | 19.2 | 3.2 | 2080 | 30.3 | 143 |  |
| YAAFQSQTTLKAKT-NH2 [Peptide 717.30] | 8.7 | 7.5 | 7.6 | 4170 | 22.2 | 105 |  |
| YARFQSQTTLKAKT-NH2 [Peptide 717.02] | 2.9 | 18.5 | 3.7 | 2780 | 18.9 | 125 |  |
| YARFQSLTTLKAKT-NH2 [Peptide 717.15] | 1.2 | 9.4 | 2 | 961 | 5.3 | 23.8 |  |
| YARFQSQTYLKAKT-NH2 [Peptide 717.33] | 1670 | 8330 | 187 | 641 | 1540 | 256 |  |
| CC(C)C[C@H](NC(=O)[C@@H](NC(=O)[C@@H](NC(=O)[C@H](CCC(N)=O)NC(=O)[C@H](CCCNC(=N)N)NC(=O)[C@H](CCC(N)=O)NC(=O)[C@H](Cc1ccccc1)NC(=O)[C@H](C)NC(=O)[C@H](C)NC(=O)[C@H](N)Cc1ccc(O)cc1)[C@@H](C)O)[C@@H](C)O)C(=O)N[C@@H](CCCCN)C(=O)N[C@@H](C)C(=O)N[C@@H](C)C(=O)N[C@H](C)C(N)=O [Peptide 781.16] (H-[dY]AAFQRQTTLKAA[dA]-NH2) | 3 | 7 | 3.8 | 2780 | 10 | 155 |  |
| CC(C)C[C@H](NC(=O)[C@@H](NC(=O)[C@@H](NC(=O)[C@H](CCC(N)=O)NC(=O)[C@H](CO)NC(=O)[C@H](CCC(N)=O)NC(=O)[C@H](Cc1ccccc1)NC(=O)[C@H](C)NC(=O)[C@H](C)NC(=O)[C@H](N)Cc1ccc(O)cc1)[C@@H](C)O)[C@@H](C)O)C(=O)N[C@@H](CCCCN)C(=O)N[C@@H](C)C(=O)N[C@@H](CCCCN)C(=O)N[C@@H](C(N)=O)[C@H](C)O [Peptide 858.04] (H-[dY]AAFQSQTTLKAK[dT]-NH2) |  |  |  |  |  |  | IC50 (DRB10404 (DR4w14); [1]): 15.6 nM; IC50 (DRB1*0401 (DR4w4); [2]): 4.5 nM; IC50 (DRB1*0701 (DR7); [3]): 25000 nM; IC50 (DRB1*1101 (DR5w11); [4]): 19.6 nM; IC50 (DRB5*0101 (DR2w2a); [5]): 141 nM |
